PubChem BioAssay (NCI)
Several values for one entry are separate records, joined by “and”; a condition that tells them apart may be missing. Equal values may be shown once.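 Protocol summary: plate cells (96-well), add compound at 5 concentrations, incubate 48 h, interpolate endpoints linearly. Abbreviation: GI50, concentration required for 50% inhibition of growth. TGI denotes the concentration required for complete inhibition of growth.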

Key:
Assay in all cases: NCI tumour cell line growth inhibition, 48 h
P388 leukemia = test system: P388 leukemia
LOX IMVI melanoma = test system: LOX IMVI melanoma
COLO 205 colon = test system: COLO 205 colon
K-562 leukemia = test system: K-562 leukemia
M19-MEL melanoma = test system: M19-MEL melanoma
UACC-257 melanoma = test system: UACC-257 melanoma
OVCAR-5 ovarian = test system: OVCAR-5 ovarian
HOP-62 NSCLC = test system: HOP-62 NSCLC
NCI-H522 lung = test system: NCI-H522 lung
UO-31 renal = test system: UO-31 renal
U251 CNS = test system: U251 CNS
DMS 273 small cell lung = test system: DMS 273 small cell lung
SK-MEL-28 melanoma = test system: SK-MEL-28 melanoma
OVCAR-4 ovarian = test system: OVCAR-4 ovarian
EKVX NSCLC = test system: EKVX NSCLC
HCC-2998 colon = test system: HCC-2998 colon
UACC-62 melanoma = test system: UACC-62 melanoma
A498 renal = test system: A498 renal
XF 498 CNS = test system: XF 498 CNS
NCI-H226 lung = test system: NCI-H226 lung
RXF 393 renal = test system: RXF 393 renal
HOP-18 NSCLC = test system: HOP-18 NSCLC
SK-MEL-2 melanoma = test system: SK-MEL-2 melanoma
CCRF-CEM leukemia = test system: CCRF-CEM leukemia
SN12K1 renal = test system: SN12K1 renal
MOLT-4 leukemia = test system: MOLT-4 leukemia
P388/ADR leukemia = test system: P388/ADR leukemia
SW-620 colon = test system: SW-620 colon
MALME-3M melanoma = test system: MALME-3M melanoma
NCI-H460 lung = test system: NCI-H460 lung
IGROV1 ovarian = test system: IGROV1 ovarian
NCI/ADR-RES ovarian = test system: NCI/ADR-RES ovarian
HOP-92 NSCLC = test system: HOP-92 NSCLC
SNB-75 CNS = test system: SNB-75 CNS
CAKI-1 renal = test system: CAKI-1 renal
KM20L2 colon = test system: KM20L2 colon
MCF7 breast = test system: MCF7 breast
KM12 colon = test system: KM12 colon
HCT-116 colon = test system: HCT-116 colon
NCI-H23 lung = test system: NCI-H23 lung
OVCAR-3 ovarian = test system: OVCAR-3 ovarian
DLD-1 colon = test system: DLD-1 colon
A549 NSCLC = test system: A549 NSCLC
SF-539 CNS = test system: SF-539 CNS
SK-OV-3 ovarian = test system: SK-OV-3 ovarian
SK-MEL-5 melanoma = test system: SK-MEL-5 melanoma
HT29 colon = test system: HT29 colon
SF-268 CNS = test system: SF-268 CNS
RPMI-8226 leukemia = test system: RPMI-8226 leukemia
SN12C renal = test system: SN12C renal
OVCAR-8 ovarian = test system: OVCAR-8 ovarian
SNB-19 CNS = test system: SNB-19 CNS
SF-295 CNS = test system: SF-295 CNS
HCT-15 colon = test system: HCT-15 colon
HL-60(TB) leukemia = test system: HL-60(TB) leukemia

SMILES: C=C1C(=O)[C@@]23CC[C@H]4[C@@](C)(CCC[C@@]4(C)C(=O)OC)[C@@H]2CC[C@]1(O)C3
- TGI (P388 leukemia): 0.424 µM
- GI50 (LOX IMVI melanoma): 1.34 µM
- TGI (LOX IMVI melanoma): 2.64 µM and 2.22 µM
- TGI (COLO 205 colon): 3.83 µM and 3.18 µM
- GI50 (K-562 leukemia): 0.463 µM
- GI50 (M19-MEL melanoma): 1.13 µM
- TGI (M19-MEL melanoma): 2.46 µM and 2.91 µM
- GI50 (UACC-257 melanoma): 1.97 µM
- TGI (UACC-257 melanoma): 3.42 µM and 3.11 µM
- GI50 (OVCAR-5 ovarian): 3.95 µM
- TGI (OVCAR-5 ovarian): 11.8 µM and 3.54 µM
- TGI (HOP-62 NSCLC): 34.7 µM
- TGI (NCI-H522 lung): 2.94 µM
- GI50 (UO-31 renal): 1.63 µM
- TGI (UO-31 renal): 3 µM and 4.03 µM
- GI50 (U251 CNS): 2.2 µM
- TGI (U251 CNS): 4.67 µM and 11.3 µM
- GI50 (DMS 273 small cell lung): 1.32 µM
- TGI (DMS 273 small cell lung): 2.66 µM and 3.08 µM
- TGI (SK-MEL-28 melanoma): 3.24 µM and 3.32 µM
- GI50 (OVCAR-4 ovarian): 1.69 µM
- TGI (OVCAR-4 ovarian): 3.12 µM and 3.31 µM
- TGI (EKVX NSCLC): 3.5 µM
- TGI (HCC-2998 colon): 8.55 µM
- GI50 (UACC-62 melanoma): 1.33 µM
- TGI (UACC-62 melanoma): 2.78 µM and 2.95 µM
- GI50 (A498 renal): 1.49 µM
- TGI (A498 renal): 3.09 µM
- TGI (XF 498 CNS): 3.17 µM and 3.15 µM
- GI50 (NCI-H226 lung): 1.78 µM
- TGI (NCI-H226 lung): 3.38 µM and 7.45 µM
- GI50 (RXF 393 renal): 3.06 µM
- TGI (RXF 393 renal): 7.97 µM
- TGI (HOP-18 NSCLC): 3.62 µM and 3.51 µM
- GI50 (SK-MEL-2 melanoma): 1.5 µM
- TGI (SK-MEL-2 melanoma): 2.82 µM and 3.12 µM
- TGI (CCRF-CEM leukemia): > 100 µM
- GI50 (SN12K1 renal): 1.67 µM
- TGI (SN12K1 renal): 3.15 µM and 2.82 µM
- TGI (MOLT-4 leukemia): 0.98 µM
- TGI (P388/ADR leukemia): 0.224 µM
- GI50 (SW-620 colon): 0.878 µM
- TGI (SW-620 colon): 2.84 µM and 1.85 µM
- GI50 (MALME-3M melanoma): 2.51 µM
- TGI (MALME-3M melanoma): 9.8 µM
- GI50 (NCI-H460 lung): 1.8 µM
- TGI (NCI-H460 lung): 3.45 µM and 13 µM
- TGI (IGROV1 ovarian): 3.07 µM and 3 µM
- TGI (NCI/ADR-RES ovarian): 2.87 µM
- GI50 (HOP-92 NSCLC): 1.48 µM
- TGI (HOP-92 NSCLC): 2.88 µM and 3.21 µM
- GI50 (SNB-75 CNS): 3.69 µM
- TGI (SNB-75 CNS): 12 µM and 6.94 µM
- TGI (CAKI-1 renal): 2.96 µM
- GI50 (KM20L2 colon): 1.91 µM
- TGI (KM20L2 colon): 3.83 µM
- GI50 (MCF7 breast): 0.326 µM
- TGI (MCF7 breast): 1.35 µM and 3.79 µM
- GI50 (KM12 colon): 1.97 µM
- TGI (KM12 colon): 3.6 µM and 5.81 µM
- TGI (HCT-116 colon): 2.21 µM and 2.17 µM
- GI50 (NCI-H23 lung): 2.41 µM
- TGI (NCI-H23 lung): 5.05 µM and 2.96 µM
- TGI (OVCAR-3 ovarian): 3.48 µM and 3.25 µM
- TGI (DLD-1 colon): 1.33 µM
- TGI (A549 NSCLC): 10.4 µM and 10.6 µM
- GI50 (SF-539 CNS): 3.53 µM
- TGI (SF-539 CNS): 11.2 µM and 3.18 µM
- TGI (SK-OV-3 ovarian): 33.4 µM
- TGI (SK-MEL-5 melanoma): 3.65 µM
- GI50 (HT29 colon): 0.911 µM
- TGI (HT29 colon): 3.14 µM and 2.71 µM
- GI50 (SF-268 CNS): 1.55 µM
- TGI (SF-268 CNS): 3 µM and 3.35 µM
- TGI (RPMI-8226 leukemia): 0.969 µM
- TGI (SN12C renal): 3.06 µM and 3.23 µM
- TGI (OVCAR-8 ovarian): 2.96 µM and 2.85 µM
- GI50 (SNB-19 CNS): 4.79 µM
- TGI (SNB-19 CNS): 16.6 µM and 27.5 µM
- GI50 (SF-295 CNS): 9.14 µM
- TGI (SF-295 CNS): 21.9 µM and 18.1 µM
- TGI (HCT-15 colon): 2.85 µM and 2.71 µM
- GI50 (HL-60(TB) leukemia): 0.27 µM
- TGI (HL-60(TB) leukemia): 1.35 µM and 0.967 µM
